Assays:
Histone deacetylase 3 = Histone deacetylase 3 (Homo sapiens, UniProt O15379); assay: HDAC Activity Assay; details: 25 °C
Experimental: (§1) The Fluor-de-Lys HDAC activity assay kit (Biomol) was used. Purified recombinant HDAC enzyme was incubated with Fluor-de-Lys substrate in the presence of test compounds. Fluor-de-Lys Developer was then added, and the mixture was incubated for another 10 min at room temperature. Fluorescence was measured using a fluorescent plate reader, with excitation 360 nm and emission 460 nm.

Histone deacetylase 1 = Histone deacetylase 1 (Homo sapiens, UniProt Q13547); assay: HDAC Activity Assay; details: pH 8; 37 °C
Histone deacetylase 1, sequence (Q13547 whole entry): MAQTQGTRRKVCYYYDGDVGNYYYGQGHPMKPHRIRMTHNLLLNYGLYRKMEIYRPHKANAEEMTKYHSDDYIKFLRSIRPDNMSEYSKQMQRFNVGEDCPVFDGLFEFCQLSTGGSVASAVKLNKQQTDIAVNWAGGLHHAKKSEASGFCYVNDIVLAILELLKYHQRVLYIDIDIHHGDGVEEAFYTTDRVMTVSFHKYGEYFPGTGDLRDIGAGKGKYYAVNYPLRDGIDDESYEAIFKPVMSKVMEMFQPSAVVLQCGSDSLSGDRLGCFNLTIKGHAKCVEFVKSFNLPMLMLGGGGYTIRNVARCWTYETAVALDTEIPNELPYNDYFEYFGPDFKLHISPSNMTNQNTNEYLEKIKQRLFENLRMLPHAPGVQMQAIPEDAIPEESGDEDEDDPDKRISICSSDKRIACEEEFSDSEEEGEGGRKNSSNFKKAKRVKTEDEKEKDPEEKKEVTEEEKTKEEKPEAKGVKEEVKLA
Experimental: as §1

Histone deacetylase 3, sequence (O15379 whole entry): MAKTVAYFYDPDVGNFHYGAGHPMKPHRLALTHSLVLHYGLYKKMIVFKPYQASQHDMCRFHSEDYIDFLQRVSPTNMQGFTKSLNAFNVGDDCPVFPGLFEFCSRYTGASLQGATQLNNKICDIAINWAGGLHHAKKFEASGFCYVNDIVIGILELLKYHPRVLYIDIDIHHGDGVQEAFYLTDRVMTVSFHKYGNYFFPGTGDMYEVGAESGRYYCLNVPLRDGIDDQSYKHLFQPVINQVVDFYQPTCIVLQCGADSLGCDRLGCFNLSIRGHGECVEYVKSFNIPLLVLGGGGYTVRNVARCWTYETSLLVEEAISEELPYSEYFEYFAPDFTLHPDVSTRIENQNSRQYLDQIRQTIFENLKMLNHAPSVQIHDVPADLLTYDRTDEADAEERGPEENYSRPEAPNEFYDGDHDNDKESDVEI

Row | IC50 (Histone deacetylase 3) [µM] | IC50 (Histone deacetylase 1) [µM] | SMILES
1 | 4.8 | 0.013 | Nc1ccc(-c2ccc(F)cc2)cc1NC(=O)c1ccc(CN2CCC3(CCCN3)CC2)cc1 [N-[2-amino-5-(4-fluorophenyl)phenyl]-4-{1,8-diazaspiro[4.5]decan-8-ylmethyl}benzamide]
2 | 19.3 | – | Cc1c(CNCc2ccc(C(=O)Nc3cc(-c4ccccc4)ccc3N)cc2)cnn1C [N-(2-amino-5-phenylphenyl)-4-({[(1,5-dimethyl-1H-pyrazol-4-yl)methyl]amino}methyl)benzamide]

Source: BindingDB's records for doi:10.1016/j.bmcl.2008.12.083 (Merck Research Laboratories, 2009)
